Drawing on patent publication US20120065196A1, “AMIDE COMPOUNDS” (priority 2006, published 2012), this text covers IC50 for 19 molecules.

Each structure is given as a SMILES string.

Broadly, the IC50 is the concentration needed to halve the response being measured.

This experiment deals with T1, human DGAT1 (Homo sapiens, UniProt O75907).
T1 construct: (N); made in house; host or cells: Sf9 insect cells infected with recombinant baculovirus BAC-DGAT1; microsome fraction
T1 sequence (O75907 1-488): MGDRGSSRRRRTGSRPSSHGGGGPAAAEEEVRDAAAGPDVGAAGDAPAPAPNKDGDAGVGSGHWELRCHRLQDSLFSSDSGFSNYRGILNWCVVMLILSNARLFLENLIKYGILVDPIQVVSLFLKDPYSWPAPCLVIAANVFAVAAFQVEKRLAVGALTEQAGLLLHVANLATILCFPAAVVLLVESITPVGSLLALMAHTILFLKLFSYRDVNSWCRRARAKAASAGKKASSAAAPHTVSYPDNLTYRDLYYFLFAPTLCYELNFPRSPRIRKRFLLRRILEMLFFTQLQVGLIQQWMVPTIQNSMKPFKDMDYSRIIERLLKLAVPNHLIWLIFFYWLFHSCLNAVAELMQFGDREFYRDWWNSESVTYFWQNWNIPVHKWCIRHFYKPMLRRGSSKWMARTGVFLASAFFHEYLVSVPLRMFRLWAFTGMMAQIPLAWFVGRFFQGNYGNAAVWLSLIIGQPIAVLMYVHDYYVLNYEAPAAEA
Description: Determination of DGAT inhibitory activity (triglyceride synthesis with DGAT1 high expression Sf9 microsome). The experiment is classed as biochemical. The conditions noted are these: 25 μM dioleoylglycerol, 25 μM [14C]-Oleoyl-CoA, 32° C., 20 min, read-out: hDGAT1 IC50. How it is done: Human DGAT1 gene was cloned by PCR using human adipocyte cDNA (Clontech, QUICK-Clone cDNA, human fat cell, cat #637220) as a template and, based on the DGAT1 gene information reported by Case, S. et al. (Proc. Natl. Acad. Sci. U.S.A. 95 (22), 13018-13023 (1998)), a nucleotide sequence (245-1711 of Genbank Accession No. NM_012079) encoding DGAT1 was amplified with the following PCR primer. The primer nucleotide sequence is shown below.
The PCR reaction was conducted using a KOD-plus kit (TOYOBO). The obtained PCR product was electrophoresed on agarose gel (1%), the DNA fragment amplified by PCR was recovered from the gel, and then digested with restriction enzymes EcoRI and SpeI. The DNA treated with the restriction enzymes was electrophoresed on agarose gel (1%), and the obtained DNA fragment was recovered and ligated with plasmid pFASTBAC1 (Invitrogen) digested with restriction enzymes EcoRI and SpeI to give expression plasmid pFB-DGAT1. The nucleotide sequence of the inserted fragment was confirmed and found to be identical with the nucleotide sequence of DGAT1 (245-1711 of Genbank Accession No. NM_012079). Furthermore, using BAC-TO-BAC Baculovirus Expression System (Invitrogen), recombinant baculovirus BAC-DGAT1 was prepared.
SF9 cells were sown at 1×10^6 cells/ml on Sf-900II SFM medium (1 L, Invitrogen) containing 10% fetal calf serum (Trace), 50 mg/L gentamicin (Invitrogen) and 0.1% Pluronic F-68 (Invitrogen), and shaking culture was performed using a 2 L volume Erlenmeyer flask at 27° C., 100 rpm. After culturing for 24 hrs, recombinant baculovirus BAC-DGAT1 (6.7 mL) was added, and the mixture was further cultured for 3 days. The culture medium was centrifuged at 2,000 rpm for 5 min to give virus-infected cells. The infected cells were washed with a phosphate buffered saline (Invitrogen), centrifuged under the same conditions, and the cells were preserved at −80° C. The cryopreserved cells were thawed in ice, suspended in buffer A (50 mM Tris buffer (30 mL, pH 7.4) containing 20% glycerol, 0.15 M NaCl) supplemented with Complete Protease Inhibitor (Boehringer), and ruptured 3 times with a Polytron homogenizer (Kinematica) at 20,000 rpm for 30 sec. The Sf9 microsome fractions were obtained by a conventional method and cryopreserved at −80° C. as a DGAT1 high expression Sf9 microsome.
As a DGAT1 reaction buffer, a solution having a composition of 100 mM Tris-HCl (pH 7.5), 250 mM sucrose, 150 mM MgCl2, 0.01% bovine serum albumin (BSA) was used. Using this buffer, a given concentration of the test compound and a composition (100 μl) of 25 μM dioleoylglycerol, 25 μM [^14C]-Oleoyl-CoA, 5 μg protein/ml DGAT1 high expression Sf9 microsome, and 1% acetone were subjected to a triglyceride synthesis reaction at 32° C. for 20 min. A mixture of 300 μL of chloroform:methanol (=1:2) was added to the reaction mixture to quench the reaction. The reaction mixture was sufficiently mixed and distilled water (200 μL) was added to partition the mixture between a chloroform layer (lower layer) and an aqueous layer (upper layer). The chloroform layer (50 μL) was spotted on a thin layer chromatography silica gel plate (TLC plate, Merck) and developed with a solvent (n-hexane:diethyl ether:ethyl acetate:acetic acid=255:30:15:0.6). The developed TLC plate was dried, contacted with a BAS imaging plate (manufactured by FUJIFILM) and measured with BAS2500 (manufactured by FUJIFILM) 16 hr later to numerically show the amount of [^14C]-triglyceride (TG amount) produced during the reaction. The inhibitory rate was calculated by the following formula:
Inhibitory rate (%)=(1−(TG amount with addition of test compound−blank TG amount)/(control TG amount−blank TG amount))×100 […]
Consider `O=C(NCCNC(=O)C1CCc2c(cnn2-c2ccccc2)C1)c1cn(-c2ccccc2)nc1C(F)(F)F` (stereo not shown) [Example E179, 1-phenyl-N-(2-(1-phenyl-3-(trifluoromethyl)-1H-pyrazole-4-carboxamido)ethyl)-4,5,6,7-tetrahydro-1H-indazole-5-carboxamide], for which the IC50 was in the range of 10 to 100 nM. With `O=C(NCCNC(=O)[C@H]1CC[C@H](c2nc(C3CC3)no2)CC1)c1cn(-c2ccccc2)nc1C(F)(F)F` [Example E151, N-(2-(trans-4-(3-Cyclopropyl-1,2,4-oxadiazol-5-yl)cyclohexanecarboxamido)ethyl)-1-phenyl-3-(trifluoromethyl)-1H-pyrazole-4-carboxamide], the IC50 was 10 to 100 nM.

As for `CC1CN(C(=O)NCCNC(=O)c2cn(-c3ccccc3)nc2C(F)(F)F)CCN1c1ccccc1` (stereo not shown) [Example E64, 3-methyl-4-phenyl-N-(2-(1-phenyl-3-(trifluoromethyl)-1H-pyrazole-4-carboxamido)ethyl)piperazine-1-carboxamide], the IC50 is 10 to 100 nM.

As to `CC(C)c1nc2c(s1)CC(C(=O)NCCNC(=O)c1cn(-c3ccccc3)nc1C(F)(F)F)CC2` (stereo not shown) [Example E242, 2-isopropyl-N-(2-(1-phenyl-3-(trifluoromethyl)-1H-pyrazole-4-carboxamido)ethyl)-4,5,6,7-tetrahydrobenzo[d]thiazole-6-carboxamide], the IC50 lay in the range of 10 to 100 nM. In the case of `O=C(NCCNC(=O)N1CCC(c2nc(-c3cccnc3)no2)CC1)c1cn(-c2ccccc2)nc1C(F)(F)F` [Example E101, N-(2-(1-phenyl-3-(trifluoromethyl)-1H-pyrazole-4-carboxamido)ethyl)-4-(3-(pyridin-3-yl)-1,2,4-oxadiazol-5-yl)piperidine-1-carboxamide], the IC50 fell in the range of 10 to 100 nM. As for `CC(C)c1nc(C2CCN(C(=O)NCCNC(=O)c3cn(-c4ccccc4)nc3C(F)(F)F)CC2)no1` [Example E225, 4-(5-isopropyl-1,2,4-oxadiazol-3-yl)-N-(2-(1-phenyl-3-(trifluoromethyl)-1H-pyrazole-4-carboxamido)ethyl)piperidine-1-carboxamide], the IC50 lay within 100 to 1000 nM. For `O=C(NCCNC(=O)N1CCC(C(=O)c2ccccc2)C1)c1cn(-c2ccccc2)nc1C(F)(F)F` (stereo not shown) [Example E189, N-(2-(3-benzoylpyrrolidine-1-carboxamido)ethyl)-1-phenyl-3-(trifluoromethyl)-1H-pyrazole-4-carboxamide], the IC50 was 10 to 100 nM. Regarding `O=C(NCCNC(=O)[C@H]1CC[C@H](c2nnc(-c3ccccc3)[nH]2)CC1)c1cn(-c2ccccc2)nc1C(F)(F)F` [Example E229, 1-Phenyl-N-(2-(trans-4-(5-phenyl-4H-1,2,4-triazol-3-yl)cyclohexanecarboxamido)ethyl)-3-(trifluoromethyl)-1H-pyrazole-4-carboxamide], the IC50 fell in the range of 100 to 1000 nM. As to `CC(C)c1nnc([C@H]2CC[C@H](C(=O)NCCNC(=O)c3cn(-c4ccccc4)nc3C(F)(F)F)N(C)C2)o1` (relative stereo) [Example E267, trans-5-(5-isopropyl-1,3,4-oxadiazol-2-yl)-1-methyl-N-(2-(1-phenyl-3-(trifluoromethyl)-1H-pyrazole-4-carboxamido)ethyl)piperidine-2-carboxamide], the IC50 was 100 to 1000 nM. As to `O=C(NCCNC(=O)[C@H]1CC[C@H](c2nc(-c3ccccc3)c[nH]2)CC1)c1cn(-c2ccccc2)nc1C(F)(F)F` [Example E172, 1-Phenyl-N-(2-(trans-4-(4-phenyl-1H-imidazol-2-yl)cyclohexanecarboxamido)ethyl)-3-(trifluoromethyl)-1H-pyrazole-4-carboxamide], the IC50 was 100 to 1000 nM. In the case of `O=C(NCCNC(=O)N1CCC(C(=O)N2CCCC2)CC1)c1cn(-c2ccccc2)nc1C(F)(F)F` [Example E63, N-(2-(1-phenyl-3-(trifluoromethyl)-1H-pyrazole-4-carboxamido)ethyl)-4-(pyrrolidine-1-carbonyl)piperidine-1-carboxamide], the IC50 was in the range of 100 to 1000 nM. As to `CC(C)CN(C)C(=O)[C@H]1CC[C@H](C(=O)NCCNC(=O)c2cn(-c3ccccc3)nc2C(F)(F)F)CC1` [Example E126, trans-N1-isobutyl-N-1-methyl-N4-(2-(1-phenyl-3-(trifluoromethyl)-1H-pyrazole-4-carboxamido)ethyl)cyclohexane-1,4-dicarboxamide], the IC50 lay within 10 to 100 nM. `CCCC1CCN(C(=O)NCCNC(=O)c2cn(-c3ccccc3)nc2C(F)(F)F)CC1` [Example E15, N-(2-(1-phenyl-3-(trifluoromethyl)-1H-pyrazole-4-carboxamido)ethyl)-4-propylpiperidine-1-carboxamide]: the IC50 lay in the range of 10 to 100 nM.

Regarding `O=C(NCCNC(=O)C1CCC(c2ccccc2)CC1)c1cn(-c2ccccc2)nc1C(F)(F)F` (stereo not shown) [Example E105, 1-phenyl-N-(2-(4-phenylcyclohexanecarboxamido)ethyl)-3-(trifluoromethyl)-1H-pyrazole-4-carboxamide], the IC50 is under 10 nM. Turning to `O=C(NCCNC(=O)[C@H]1CC[C@H](c2n[nH]c(=O)o2)CC1)c1cn(-c2ccccc2)nc1C(F)(F)F` [Example E197, N-(2-(trans-4-(5-oxo-4,5-dihydro-1,3,4-oxadiazol-2-yl)cyclohexanecarboxamido)ethyl)-1-phenyl-3-(trifluoromethyl)-1H-pyrazole-4-carboxamide], the IC50 fell in the range of 10 to 100 nM.

For the molecule `O=C(NCCNC(=O)C1CCN(S(=O)(=O)c2cccnc2)CC1)c1cn(-c2ccccc2)nc1C(F)(F)F` [Example E74, N-(2-(1-phenyl-3-(trifluoromethyl)-1H-pyrazole-4-carboxamido)ethyl)-1-(pyridin-3-ylsulfonyl)piperidine-4-carboxamide], the IC50 lay in the range of 10 to 100 nM.

Regarding `O=C(NCCNC(=O)[C@H]1CC[C@H](C(=O)NCCF)CC1)c1cn(-c2ccccc2)nc1C(F)(F)F` [Example E165, trans-N1-(2-fluoroethyl)-N4-(2-(1-phenyl-3-(trifluoromethyl)-1H-pyrazole-4-carboxamido)ethyl)cyclohexane-1,4-dicarboxamide], the IC50 was 100 to 1000 nM. For the molecule `CC(C)c1nnc([C@H]2CC[C@H](C(=O)NCCNC(=O)c3cn(-c4ccccc4Cl)nc3C(F)(F)F)CC2)o1` [Example E234, 1-(2-chlorophenyl)-N-(2-(trans-4-(5-isopropyl-1,3,4-oxadiazol-2-yl)cyclohexanecarboxamido)ethyl)-3-(trifluoromethyl)-1H-pyrazole-4-carboxamide], the IC50 fell in the range of 100 to 1000 nM. Turning to `O=C(NCCNC(=O)N1CCc2nc[nH]c2C1)c1cn(-c2ccccc2)nc1C(F)(F)F` [Example E95, N-(2-(1-phenyl-3-(trifluoromethyl)-1H-pyrazole-4-carboxamido)ethyl)-6,7-dihydro-3H-imidazo[4,5-c]pyridine-5(4H)-carboxamide], the IC50 was in the range of 100 to 1000 nM.
